Source: patent publication US8222416B2, “Azaindole glucokinase activators” (Hoffmann-La Roche Inc., priority 2009, dated 2012)

Each molecule was assayed on C57BL/6J mice (assay: Glucokinase activator in vivo screen, blood glucose after oral gavage in lean and diet induced obese mice). Settings: Mus musculus; vs control at 2 hours post 25 mg/kg oral dose, C57B6 mice; read-out: % gluc lowering @ 2 H.
Experimental: Glucokinase Activator in vivo Screen Protocol in Lean and Diet Induced Obese Mice: Lean or Diet-Induced Obese (DIO) C57BL/6J mice were orally dosed via gavage with Glucokinase (GK) activator following a two hour fasting period. Blood glucose determinations were made at various (e.g. 0, 1, 2, 4 and 8 hours post-oral gavage) times during the study.
C57Bl/6J mice were obtained from Jackson Laboratory (Bar Harbor, Me.) and were maintained in a light-dark cycle with lights on from 0600-1800 hr. For studies in lean mice, the mice were received at age ten weeks and given ad libitum access to control diet (LabDiet 5001 chow, PMI Nutrition, Brentwood, Mo.), and were at least age 11 weeks at the time of study. For studies in the DIO model, the mice were received at age five weeks and given ad libitum access to Bio-Sery F3282 High Fat Diet (Frenchtown, N.J.), and were at least age 16 weeks at the time of study. The experiments were conducted during the light phase of the light-dark cycle. Mice (n=6) are weighed and fasted for a two hour period prior to oral treatment. GK activators are formulated in Gelucire vehicle (Ethanol:Gelucire44/14:PEG400q.s. 4:66:30 v/w/v. For studies in lean mice, the mice were dosed orally with 5.04 per gram of body weight (i.e. 5 ml/kg×10.0 mg/ml formulation to equal a 50 mg/kg dose). For studies in DIO mice, the mice were dosed orally with 5.04 per gram of body weight (i.e. 5.0 ml/kg×5 mg/ml formulation to equal a 25 mg/kg dose). Immediately prior to dosing, a pre-dose (time zero) blood glucose reading was acquired by snipping off a small portion of the animal's tail and collecting […] blood into a heparinized capillary tube for analysis. Following GK activator administration, additional blood glucose readings were taken at various time points post dose from the same tail wound. Results were interpreted by comparing the mean blood glucose values of vehicle treated mice with GK activator treated mice over the study period.
The Table below provides data for % glucose lowering of a representative number of compounds of the present invention vs control at 2 hours post 25 or 50 mg/kg dose in C57B6 mice: […]
CS(=O)(=O)c1ccc(/C(=C\C2CCOCC2)c2cc3cc(F)cnc3[nH]2)cc1 [Example 122, 5-Fluoro-2-[(E)-1-(4-methanesulfonyl-phenyl)-2-(tetrahydro-pyran-4-yl)-vinyl]-1H-pyrrolo[2,3-b]pyridine] showed a change in vivo at 25 mg/kg of -59.4%. Molecule COCc1cnc2[nH]c([C@H](CC3CCCC3)c3ccc(S(C)(=O)=O)cc3)cc2c1 (single isomer, unassigned) [Example 42] has a change in vivo at 25 mg/kg of -10.3%.

Same assay, conditions: Mus musculus; vs control at 2 hours post 50 mg/kg oral dose, C57B6 mice; read-out: % gluc lowering @ 2 H
For CS(=O)(=O)c1ccc(C(CC2CCCC2)c2cc3cccnc3[nH]2)cc1 (stereo not drawn) [Example 138, 2-[2-Cyclopentyl-1-(4-methanesulfonyl-phenyl)-ethyl]-1H-pyrrolo[2,3-b]pyridine], the change in vivo at 50 mg/kg was -50.4%. In the case of CC(C)S(=O)(=O)c1ccc(C(CC2CCCC2)c2cc3cccnc3[nH]2)cc1 (stereo not drawn) [Example 69], the change in vivo at 50 mg/kg is reported as -40.3%.

Each molecule was assayed against T1, Recombinant human liver GK1 (GST-GK) (Homo sapiens, UniProt P35557) (assay: In vitro glucokinase activity assay (G6PDH-coupled, NADH, OD340)). Settings: at 30 μM.
T1 construct: made in house; host or cells: E. coli
T1 sequence (P35557 1-466 isoform P35557-2): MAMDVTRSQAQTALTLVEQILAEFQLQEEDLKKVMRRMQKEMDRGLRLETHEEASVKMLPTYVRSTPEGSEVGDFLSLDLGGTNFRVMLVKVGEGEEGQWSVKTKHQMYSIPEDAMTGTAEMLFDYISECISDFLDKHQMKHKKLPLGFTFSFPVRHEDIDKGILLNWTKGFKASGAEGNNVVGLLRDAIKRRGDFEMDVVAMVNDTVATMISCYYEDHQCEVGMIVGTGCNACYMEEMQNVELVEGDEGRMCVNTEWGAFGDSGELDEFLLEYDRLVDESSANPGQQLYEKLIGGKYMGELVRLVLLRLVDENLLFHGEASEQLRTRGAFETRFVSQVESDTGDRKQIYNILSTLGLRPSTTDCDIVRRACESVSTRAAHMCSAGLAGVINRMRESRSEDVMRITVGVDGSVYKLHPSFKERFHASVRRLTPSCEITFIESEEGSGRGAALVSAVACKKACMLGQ
Assay type: biochemical
Outline: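 GST-fused human liver GK1 from E. coli, run at 30° C. in pH 7.1 HEPES with 5 mM glucose, 1 mM ATP and 10% DMSO, coupled via G6PDH to NADH. OD340 rate measured after enzyme start; SC1.5 is the activator concentration raising activity 50% over DMSO control.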
COc1cnc2[nH]c(C(CC3CCCC3)c3ccc(C(C)(C)O)cc3)cc2c1 (stereo not drawn) [Example 35, 2-{4-[2-Cyclopentyl-1-(5-methoxy-1H-pyrrolo[2,3-b]pyridin-2-yl)-ethyl]-phenyl}-propan-2-ol] was tested, and the “fold activation of GK” value was 1.4 fold at 30.

Same assay, conditions: concentration of activator that produced a 50% increase in the activity of GK; 5 mM D-glucose, 30° C.
CS(=O)(=O)c1ccc(C(CC2CCCC2)c2cc3cccnc3[nH]2)cc1 (stereo not drawn) [Example 138, 2-[2-Cyclopentyl-1-(4-methanesulfonyl-phenyl)-ethyl]-1H-pyrrolo[2,3-b]pyridine] showed an SC1.5 of 0.236 µM. With CS(=O)(=O)c1ccc(/C(=C\C2CCOCC2)c2cc3cc(F)cnc3[nH]2)cc1 [Example 122, 5-Fluoro-2-[(E)-1-(4-methanesulfonyl-phenyl)-2-(tetrahydro-pyran-4-yl)-vinyl]-1H-pyrrolo[2,3-b]pyridine] the SC1.5 was 0.051 µM. Work on COCc1cnc2[nH]c([C@H](CC3CCCC3)c3ccc(S(C)(=O)=O)cc3)cc2c1 (single isomer, unassigned) [Example 42] yielded an SC1.5 of 0.903 µM. With CC(C)S(=O)(=O)c1ccc(C(CC2CCCC2)c2cc3cccnc3[nH]2)cc1 (stereo not drawn) [Example 69] the SC1.5 was 0.387 µM. With CC(C)CC(c1ccc(C(C)(C)O)c(F)c1)c1cc2cc(F)cnc2[nH]1 (stereo not drawn) [Example 105, 2-{2-Fluoro-4-[1-(5-fluoro-1H-pyrrolo[2,3-b]pyridin-2-yl)-3-methyl-butyl]-phenyl}-propan-2-ol] the SC1.5 was 0.368 µM. CS(=O)(=O)c1ccc(C(CC2CCCC2)c2cc3cc(CO)cnc3[nH]2)cc1 (stereo not drawn) [Example 8, {2-[2-Cyclopentyl-1-(4-methanesulfonyl-phenyl)-ethyl]-1H-pyrrolo[2,3-b]pyridin-5-yl}-methanol] gave an SC1.5 of 3.4 µM. Molecule CC(C)(O)c1ccc(C(CC2CCCC2)c2cc3cc(C(=O)O)cnc3[nH]2)cc1F (stereo not drawn) [Example 57, 2-{2-Cyclopentyl-1-[3-fluoro-4-(1-hydroxy-1-methyl-ethyl)-phenyl]-ethyl}-1H-pyrrolo[2,3-b]pyridin-5-carboxylic acid] has an SC1.5 of 22.3 µM. In the case of CS(=O)(=O)c1ccc(C(CC2CCCC2)c2cc3cc(CC(O)CO)cnc3[nH]2)cc1 (stereo not drawn) [Example 11, 3-{2-[2-Cyclopentyl-1-(4-methanesulfonyl-phenyl)-ethyl]-1H-pyrrolo[2,3-b]pyridin-5-yl}-propane-1,2-diol], the SC1.5 is reported as 7.3 µM. Work on CC(C)CC(c1cccc(N(C)C)c1)c1cc2cccnc2[nH]1 (stereo not drawn) [Example 136, N,N-Dimethyl-3-(3-methyl-1-(1H-pyrrolo[2,3-b]pyridine-2-yl)butyl)benzenamine] yielded an SC1.5 of 14.3 µM. N#Cc1ccc([C@@H](CC2CCCC2)c2cc3cc(F)cnc3[nH]2)cc1 (single isomer, unassigned) [Example 51] showed an SC1.5 of 0.343 µM. Molecule CC(C)CC(c1ccc(S(=O)(=O)CCO)cc1)c1cc2cc(F)cnc2[nH]1 (stereo not drawn) [Example 101] has an SC1.5 of 0.854 µM. In the case of CS(=O)(=O)c1ccc(C(O)(CC2CCC2)c2cc3cccnc3[nH]2)cc1C(F)(F)F (stereo not drawn) [Example 76, 2-Cyclobutyl-1-(4-methanesulfonyl-3-trifluoromethyl-phenyl)-1-(1H-pyrrolo[2,3-b]pyridin-2-yl)-ethanol], the SC1.5 is reported as 14.9 µM. CC(C)(C)/C=C(\c1ccc(S(C)(=O)=O)cc1)c1cc2cccnc2[nH]1 [Example 73, 2-[(E)-1-(4-Methanesulfonyl-phenyl)-3,3-dimethyl-but-1-enyl]-1H-pyrrolo[2,3-b]pyridine] gave an SC1.5 of 0.653 µM. CC(C)(CO)Oc1cnc2[nH]c([C@H](CC3CCCC3)c3ccc(S(C)(=O)=O)cc3)cc2c1 (single isomer, unassigned) [Example 29] gave an SC1.5 of 1.1 µM. CCOC(=O)C(C)(C)Oc1cnc2[nH]c(C(CC3CCCC3)c3ccc(S(C)(=O)=O)cc3)cc2c1 (stereo not drawn) [Example 26, 2-{2-[2-Cyclopentyl-1-(4-methanesulfonyl-phenyl)-ethyl]-1H-pyrrolo[2,3-b]pyridin-5-yloxy}-2-methyl-propionic acid ethyl ester] was tested, and the SC1.5 was 2.3 µM. Work on CN(C)CC(=O)OCc1cnc2[nH]c(C(CC3CCCC3)c3ccc(S(C)(=O)=O)cc3)cc2c1 (stereo not drawn) [Example 37, Dimethylamino-acetic acid 2-[2-cyclopentyl-1-(4-methanesulfonyl-phenyl)-ethyl]-1H-pyrrolo[2,3-b]pyridin-5-ylmethyl-ester] yielded an SC1.5 of 4.4 µM. CS(=O)(=O)c1ccc(C(O)(CC2CCCC2)c2cc3cc(F)cnc3[nH]2)cc1 (single isomer, unassigned) [Example 49, 2-Cyclopentyl-1-(5-fluoro-1H-pyrrolo[2,3-b]pyridin-2-yl)-1-(4-methanesulfonyl-phenyl)-ethanol] gave an SC1.5 of 0.354 µM. In the case of CS(=O)(=O)c1ccc(C(CC2CCCC2)c2cc3cc(C(=O)NCCO)cnc3[nH]2)cn1 (stereo not drawn) [Example 59, 2-[2-Cyclopentyl-1-(6-methanesulfonyl-pyridin-3-yl)-ethyl]-1H-pyrrolo[2,3-b]pyridin-5-carboxylic acid(2-hydroxy-ethyl)-amide], the SC1.5 is reported as 5.5 µM. CS(=O)(=O)c1ccc(C(CC2CCC2)c2cc3cc(F)cnc3[nH]2)cc1 (stereo not drawn) [Example 47, 2-[2-Cyclobutyl-1-(4-methanesulfonyl-phenyl)-ethyl]-5-fluoro-1H-pyrrolo[2,3-b]pyridine] was tested, and the SC1.5 was 0.415 µM. For Cc1cc(C)cc(C(CC2CCCC2)c2cc3cccnc3[nH]2)c1 (stereo not drawn) [Example 66, 2-[2-Cyclopentyl-1-(3.5-dimethyl-phenyl)-ethyl]-1H-pyrrolo[2,3-b]pyridine], the SC1.5 was 4.2 µM. Work on CS(=O)(=O)c1ccc(C(CC2CCC(=O)C2)c2cc3cccnc3[nH]2)cc1 (single isomer, unassigned) [Example 79, 3-[2-(4-Methanesulfonyl-phenyl)-2-(1H-pyrrolo[2,3-b]pyridin-2-yl)-ethyl]-cyclopentanone] yielded an SC1.5 of 0.201 µM. CS(=O)(=O)c1ccc(C(O)(CC2CCCC2)c2cc3cc(F)cnc3[nH]2)cc1 (stereo not drawn) [Example 48, 2-Cyclopentyl-1-(5-fluoro-1H-pyrrolo[2,3-b]pyridin-2-yl)-1-(4-methanesulfonyl-phenyl)-ethanol] was tested, and the SC1.5 was 0.654 µM. Molecule CC(C)C(C)(O)c1ccc(C(CC2CCCC2)c2cc3cccnc3[nH]2)cc1 (stereo not drawn) [Example 85, 2-{4-[2-Cyclopentyl-1-(1H-pyrrolo[2,3-b]pyridin-2-yl)-ethyl]-phenyl}-3-methyl-butan-2-ol] has an SC1.5 of 23.6 µM. With Cc1cnc2[nH]c([C@H](CC3CCCC3)c3ccc(C(C)(C)O)c(F)c3)cc2c1 (single isomer, unassigned) [Example 129] the SC1.5 was 2.6 µM. COc1cccc(C(CC(C)C)c2cc3cccnc3[nH]2)c1 (stereo not drawn) [Example 134, 2-(1-(3-Methoxy-phenyl)-3-methyl-butyl)-1H-pyrrolo[2,3-b]pyridine] gave an SC1.5 of 12.9 µM. For CS(=O)(=O)c1ccc(C(CC2CCCC2)c2cc3cc(F)cnc3[nH]2)cc1 (stereo not drawn) [Example 117, 2-[2-Cyclopentyl-1-(4-methanesulfonyl-phenyl)-ethyl]-5-fluoro-1H-pyrrolo[2,3-b]pyridine], the SC1.5 was 0.071 µM. N#Cc1ccc(C(CC2CCCC2)c2cc3cccnc3[nH]2)cc1 (stereo not drawn) [Example 43, 4-[2-Cyclopentyl-1-(1H-pyrrolo[2,3-b]pyridin-2-yl)-ethyl]-benzonitrile] was tested, and the SC1.5 was 1.4 µM. COC(=O)c1cnc2[nH]c(C(CC3CCCC3)c3ccc(S(C)(=O)=O)cc3)cc2c1 (stereo not drawn) [Example 54, 2-[2-Cyclopentyl-1-(4-methanesulfonyl-phenyl)-ethyl]-1H-pyrrolo[2,3-b]pyridin-5-carboxylic acid methyl ester] showed an SC1.5 of 1.2 µM.
